Laboratory results from patent US7531554B2, “4-oxoquinoline compound and use thereof as HIV integrase inhibitor” (Japan Tobacco Inc., priority 2004, dated 2009).
Counter-ions that a name gives are not always drawn.

Each compound was assayed against T1, HIV integrase (Human immunodeficiency virus type 1 group M subtype B, UniProt P12497, F1332H) (assay: Determination of enzyme (HIV integrase) inhibitory activity). Settings: recombinant integrase protein (F185H), donor DNA/target DNA, absorbance at 450 nm.
T1 construct: HIV integrase full length gene (J. Virol., 67, 425-437 (1993)) in which phenylalanine at codon 185 was substituted by histidine; made in house; host or cells: Escherichia coli BL21(DE3)
Assay type: biochemical
Summary of the method: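 Full-length HIV integrase bearing F185H mutation, E. coli-expressed and purified, preincubated with compound on plate-bound biotinylated donor DNA for 60 min at 37 °C; digoxigenin-labelled target DNA then added for 10 min. Strand transfer detected by peroxidase anti-digoxigenin ELISA at 450 nm; IC50 from inhibition versus no-compound and no-enzyme controls.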
For `CC(C)[C@@H](CO)n1cc(C(=O)O)c(=O)c2cc(Cc3cccc(Cl)c3F)c(OCCCCO)cc21` [Example 4-5, 6-(3-chloro-2-fluorobenzyl)-7-(4-hydroxybutoxy)-1-((1S)-1-(hydroxymethyl)-2-methylpropyl)-4-oxo-1,4-dihydroquinoline-3-carboxylic acid], the IC50 was 3.4 nM.
`CC(C)[C@@H](CO)n1cc(C(=O)O)c(=O)c2cc(Cc3cccc(Cl)c3F)c(O[C@H]3CCNC3)cc21` [Example 4-46, 6-(3-chloro-2-fluorobenzyl)-1-((1S)-1-(hydroxymethyl)-2-methylpropyl)-4-oxo-7-((3S)-pyrrolidin-3-yloxy)-1,4-dihydroquinoline-3-carboxylic acid hydrochloride] was tested, and the IC50 was 6.8 nM.
`CC(C)[C@@H](CO)n1cc(C(=O)O)c(=O)c2cc(Cc3cccc(Cl)c3F)c(OCc3cccnc3)cc21` [Example 4-61, 6-(3-chloro-2-fluorobenzyl)-1-((1S)-1-(hydroxymethyl)-2-methylpropyl)-4-oxo-7-(pyridin-3-ylmethoxy)-1,4-dihydroquinoline-3-carboxylic acid] was tested, and the IC50 was 4.9 nM.
In the case of `CC(C)[C@@H](CO)n1cc(C(=O)O)c(=O)c2cc(Cc3cccc(Cl)c3F)c(OCS(=O)(=O)N(C)C)cc21` [Example 4-28, 6-(3-chloro-2-fluorobenzyl)-7-((dimethylamino)sulfonylmethoxy)-1-((1S)-1-(hydroxymethyl)-2-methylpropyl)-4-oxo-1,4-dihydroquinoline-3-carboxylic acid], the IC50 is reported as 4.5 nM.
`CC(C)[C@@H](CO)n1cc(C(=O)O)c(=O)c2cc(Cc3cccc(Cl)c3F)c(OCC(=O)N(C)C)cc21` [Example 4-53, 6-(3-chloro-2-fluorobenzyl)-7-((dimethylaminocarbonyl)methoxy)-1-((1S)-1-(hydroxymethyl)-2-methylpropyl)-4-oxo-1,4-dihydroquinoline-3-carboxylic acid] was tested, and the IC50 was 5 nM.
For `CC(C)[C@@H](CO)n1cc(C(=O)O)c(=O)c2cc(Cc3cccc(Cl)c3F)c(OCc3ccc(S(N)(=O)=O)cc3)cc21` [Example 4-63, 7-(4-(aminosulfonyl)benzyloxy)-6-(3-chloro-2-fluorobenzyl)-1-((1S)-1-(hydroxymethyl)-2-methylpropyl)-4-oxo-1,4-dihydroquinoline-3-carboxylic acid], the IC50 was 3.6 nM.
For `COc1cc2c(cc1Cc1cccc(Cl)c1F)c(=O)c(C(=O)O)cn2[C@H](CO)CSC` [Example 2-3, 6-(3-chloro-2-fluorobenzyl)-1-((1R)-1-(hydroxymethyl)-2-(methylthio)ethyl)-7-methoxy-4-oxo-1,4-dihydroquinoline-3-carboxylic acid], the IC50 was 6.8 nM.
Compound `COc1cc2c(cc1Cc1c(F)cccc1Cl)c(=O)c(C(=O)O)cn2[C@H](CO)C(C)C` [Example 7-1, 6-(2-chloro-6-fluorobenzyl)-1-((1S)-1-(hydroxymethyl)-2-methylpropyl)-7-methoxy-4-oxo-1,4-dihydroquinoline-3-carboxylic acid] has an IC50 of 17 nM.
Compound `CC(C)[C@@H](CO)n1cc(C(=O)O)c(=O)c2cc(Cc3cccc(Cl)c3F)cc(OCCN(C)C)c21` [Example 3-6, 6-(3-chloro-2-fluorobenzyl)-8-(2-(dimethylamino)ethoxy)-1-((1S)-1-(hydroxymethyl)-2-methylpropyl)-4-oxo-1,4-dihydroquinoline-3-carboxylic acid] has an IC50 of 11 nM.
`CC(C)[C@@H](CO)n1cc(C(=O)O)c(=O)c2cc(Cc3cccc(Cl)c3F)c(O)cc21` [Example 7-5, 6-(3-chloro-2-fluorobenzyl)-7-hydroxy-1-((1S)-1-(hydroxymethyl)-2-methylpropyl)-4-oxo-1,4-dihydroquinoline-3-carboxylic acid] showed an IC50 of 3.2 nM.
`COc1cc2c(cc1Cc1cccc(Cl)c1F)c(=O)c(C(=O)O)cn2C(CO)C1CCNCC1` (stereo not shown) [Example 2-2, 6-(3-chloro-2-fluorobenzyl)-1-(2-hydroxy-1-(piperidin-4-yl)ethyl)-7-methoxy-4-oxo-1,4-dihydroquinoline-3-carboxylic acid hydrochloride] showed an IC50 of 12 nM.
For `O=C(O)c1cn2c3c(cc(Cc4cccc(Cl)c4F)cc3c1=O)OCC2CO` (stereo not shown) [Example 5-2, 8-(3-chloro-2-fluorobenzyl)-3-hydroxymethyl-6-oxo-2,3-dihydro-6H-1-oxa-3a-aza-phenalene-5-carboxylic acid], the IC50 was 47 nM.
With `COc1cc2c(cc1Cc1cccc(Cl)c1Cl)c(=O)c(C(=O)O)cn2[C@H](CO)C(C)C` [Example 7-2, 6-(2,3-dichlorobenzyl)-1-((1S)-1-(hydroxymethyl)-2-methylpropyl)-7-methoxy-4-oxo-1,4-dihydroquinoline-3-carboxylic acid] the IC50 was 4.5 nM.
Work on `COc1cc2c(cc1C(O)c1cccc(Cl)c1F)c(=O)c(C(=O)O)cn2[C@H](CO)C(C)C` (single isomer, unassigned) [Example 7-8] yielded an IC50 of 39 nM.
`CC(C)[C@@H](CO)n1cc(C(=O)O)c(=O)c2cc(Cc3cccc(Cl)c3F)cc(O)c21` [Example 3-5, 6-(3-chloro-2-fluorobenzyl)-8-hydroxy-1-((1S)-1-(hydroxymethyl)-2-methylpropyl)-4-oxo-1,4-dihydroquinoline-3-carboxylic acid] was tested, and the IC50 was 4 nM.
`CC(C)[C@@H](CO)n1cc(C(=O)O)c(=O)c2cc(Cc3cccc(Cl)c3F)c(OCCN)cc21` [Example 4-18, 7-(2-aminoethoxy)-6-(3-chloro-2-fluorobenzyl)-1-((1S)-1-(hydroxymethyl)-2-methylpropyl)-4-oxo-1,4-dihydroquinoline-3-carboxylic acid hydrochloride] was tested, and the IC50 was 4.8 nM.
For `COCCOc1cc(Cc2cccc(Cl)c2F)cc2c(=O)c(C(=O)O)cn([C@H](CO)C(C)C)c12` [Example 3-4, 6-(3-chloro-2-fluorobenzyl)-1-((1S)-1-(hydroxymethyl)-2-methylpropyl)-8-(2-methoxyethoxy)-4-oxo-1,4-dihydroquinoline-3-carboxylic acid], the IC50 was 4.5 nM.
Work on `CCN1CCN(c2cc3c(cc2Cc2cccc(Cl)c2F)c(=O)c(C(=O)O)cn3[C@H](CO)C(C)C)CC1` [Example 4-15, 6-(3-chloro-2-fluorobenzyl)-7-(4-ethylpiperazin-1-yl)-1-((1S)-1-(hydroxymethyl)-2-methylpropyl)-4-oxo-1,4-dihydroquinoline-3-carboxylic acid] yielded an IC50 of 11 nM.
`CC(=O)N1CCC(Oc2cc3c(cc2Cc2cccc(Cl)c2F)c(=O)c(C(=O)O)cn3[C@H](CO)C(C)C)CC1` [Example 4-45, 7-((1-acetylpiperidin-4-yl)oxy)-6-(3-chloro-2-fluorobenzyl)-1-((1S)-1-(hydroxymethyl)-2-methylpropyl)-4-oxo-1,4-dihydroquinoline-3-carboxylic acid] gave an IC50 of 13 nM.
Work on `CC(C)[C@@H](CO)n1cc(C(=O)O)c(=O)c2cc(Cc3cccc(Cl)c3F)c(OCCNS(C)(=O)=O)cc21` [Example 4-49, 6-(3-chloro-2-fluorobenzyl)-1-((1S)-1-(hydroxymethyl)-2-methylpropyl)-7-(2-(mesylamino)ethoxy)-4-oxo-1,4-dihydroquinoline-3-carboxylic acid] yielded an IC50 of 5.1 nM.
For `CC(C)[C@@H](CO)n1cc(C(=O)O)c(=O)c2cc(Cc3cccc(Cl)c3F)c(Oc3cccnc3)cc21` [Example 4-20, 6-(3-chloro-2-fluorobenzyl)-1-((1S)-1-(hydroxymethyl)-2-methylpropyl)-4-oxo-7-(pyridin-3-yloxy)-1,4-dihydroquinoline-3-carboxylic acid hydrochloride], the IC50 was 9.3 nM.
With `COc1cc2c(cc1Cc1ccc(F)c(Cl)c1F)c(=O)c(C(=O)O)cn2[C@H](CO)C(C)C` [Example 1-5, 6-(3-chloro-2,4-difluorobenzyl)-1-((1S)-1-(hydroxymethyl)-2-methylpropyl)-7-methoxy-4-oxo-1,4-dihydroquinoline-3-carboxylic acid] the IC50 was 3.3 nM.
In the case of `COc1cc2c(cc1Cc1c(F)cccc1C(F)(F)F)c(=O)c(C(=O)O)cn2[C@H](CO)C(C)C` [Example 1-12, 6-(2-fluoro-6-(trifluoromethyl)benzyl)-1-((1S)-1-(hydroxymethyl)-2-methylpropyl)-7-methoxy-4-oxo-1,4-dihydroquinoline-3-carboxylic acid], the IC50 is reported as 260 nM.
With `CC(C)[C@@H](CO)n1cc(C(=O)O)c(=O)c2cc(Cc3cccc(Cl)c3F)c(OCCN3CCN(C)CC3)cc21` [Example 4-51, 6-(3-chloro-2-fluorobenzyl)-1-((1S)-1-(hydroxymethyl)-2-methylpropyl)-7-(2-(4-methylpiperazin-1-yl)ethoxy)-4-oxo-1,4-dihydroquinoline-3-carboxylic acid ditrifluoroacetate] the IC50 was 6 nM.
`CC(C)[C@@H](CO)n1cc(C(=O)O)c(=O)c2cc(Cc3cccc(Cl)c3F)c(OCCCCN(C)C)cc21` [Example 4-7, 6-(3-chloro-2-fluorobenzyl)-7-(4-(dimethylamino)butoxy)-1-((1S)-1-(hydroxymethyl)-2-methylpropyl)-4-oxo-1,4-dihydroquinoline-3-carboxylic acid] was tested, and the IC50 was 5 nM.
`CC(C)[C@@H](CO)n1cc(C(=O)O)c(=O)c2cc(Cc3cccc(Cl)c3F)cc(OCc3ccccc3)c21` [Example 3-9, 8-benzyloxy-6-(3-chloro-2-fluorobenzyl)-1-((1S)-1-(hydroxymethyl)-2-methylpropyl)-4-oxo-1,4-dihydroquinoline-3-carboxylic acid] showed an IC50 of 5 nM.
Compound `COc1cc2c(cc1Cc1cc(F)c(F)c(Cl)c1F)c(=O)c(C(=O)O)cn2[C@H](CO)C(C)C` [Example 1-7, 6-(3-chloro-2,4,5-trifluorobenzyl)-1-((1S)-1-(hydroxymethyl)-2-methylpropyl)-7-methoxy-4-oxo-1,4-dihydroquinoline-3-carboxylic acid] has an IC50 of 5.5 nM.
With `COc1cc2c(cc1Cc1cccc(Cl)c1F)c(=O)c(C(=O)O)cn2[C@H](CO)CCS(C)(=O)=O` [Example 2-13, 6-(3-chloro-2-fluorobenzyl)-1-((1S)-1-(hydroxymethyl)-3-mesylpropyl)-7-methoxy-4-oxo-1,4-dihydroquinoline-3-carboxylic acid] the IC50 was 6.9 nM.
